By Ki is commonly meant the equilibrium dissociation constant of an inhibitor or competing ligand from its target. One may read the inhibition as the drop in the measured response relative to a control, in per cent. A higher inhibition goes with a strong effect. One may read the IC50 as the concentration that inhibits the measured activity by half.

The subject of assay [1] is Radical scavenging activity. The assay is described as follows: Antioxidant activity assessed as DPPH radical scavenging activity at 50 uM after 20 mins. Type of assay: functional. A general note: The DPPH test is a chemical assay of radical scavenging.
Assay [2] has as its system Radical scavenging activity. Nature of the assay: Antioxidant activity assessed as DPPH radical scavenging activity at 50 uM after 60 mins. Type of assay: functional.
Assay [3] concerns Radical scavenging activity. Nature of the assay: Antioxidant activity assessed as DPPH radical scavenging activity at 10 uM after 60 mins. Type of assay: functional.
The subject of assay [4] is Radical scavenging activity. The assay is described as follows: Antioxidant activity assessed as DPPH radical scavenging activity at 10 uM after 20 mins. The assay is classed as functional.
The target of a further assay is Prothrombin (Homo sapiens, UniProt P00734). Nature of the assay: Inhibition of thrombin using S-2238 as substrate after 15 mins by spectrophotometric analysis.
In the next assay the test system is Glycine max. The assay is described as follows: (§1) Inhibition of soybean lipoxygenase by UV absorbance based assay.
The nature of assay [5]: Antioxidant activity against AAPH-induced linoleic acid peroxidation by UV spectrophotometry analysis. The assay is classed as functional.
Assay [6] is described as follows: as §1. Set-up: species or system Glycine max.
A short description of assay [7]: Antioxidant activity against AAPH-induced linoleic acid peroxidation at 100 uM by UV spectrophotometry analysis. The assay is classed as functional.

In the case of `CCOC(=O)CN(Cc1cc(F)cc(F)c1)c1ccc2c(c1)OC(C)(COc1ccc(C(=N)N)cc1)CN2C` (configuration not stated), the Activity came to 54% in [1], 68% in assay [2], 86% in [3] and 75% in assay [4]. Further, at Prothrombin, the Ki was determined as 0.48 µM. The same compound had an inhibition in the assay with Glycine max greater than 0%. This compound also gave an IC50 in [5] of 69 µM.

Take `CCOC(=O)C(=O)N(Cc1cc(F)cc(F)c1)c1ccc2c(c1)N(C)CC(C)(COc1ccc(C(=N)N)cc1)O2` (configuration not stated): the Activity in [1] came to 23%; in assay [2], 28%; in [3] it was 36%; in [4] it was 25%. For the same compound, the values for the IC50 in assay [6] and in [5] were 99 µM and 69 µM, respectively.

In assay [7], `Cc1c(C)c2c(c(C)c1O)CCC(C)(C(=O)O)O2` (configuration not stated) registered an inhibition of 63%.

Take `CCOC(=O)CN(Cc1cccc(F)c1)c1ccc2c(c1)N(C)CC(C)(COc1ccc(C(=N)N)cc1)O2` (configuration not stated): the Activity worked out at 11% in assay [1], 14% in assay [2], 23% in assay [3] and 10% in assay [4]. This compound displayed a Ki at Prothrombin of 0.9 µM. The same compound returned an inhibition in the assay with Glycine max of 9.7%. Moreover, the IC50 in [5] is 59 µM.

Turning to `CCOC(=O)CN(Cc1ccc(F)cc1)c1ccc2c(c1)OC(C)(COc1ccc(C(=N)N)cc1)CN2C` (configuration not stated), the Activity in assay [1] came out at 62%; in assay [2], 70%; in [3], 93%; in assay [4], 88%. Moreover, the Ki on Prothrombin was 0.31 µM. Also, in the assay on Glycine max, the inhibition is greater than 0%. Moreover, the IC50 in [5] is 94.5 µM.

Consider `CCOC(=O)CN(Cc1cccc(F)c1)c1ccc2c(c1)OC(C)(COc1ccc(C(=N)N)cc1)CN2C` (configuration not stated), for which the Activity in assay [1] was 48%; in assay [2] it was 63%; in [3], 85%; in assay [4] it was 71%. The inhibitory constant (Ki) at Prothrombin came to 0.35 µM. The compound further gave an inhibition in the assay on Glycine max greater than 0%. In addition, in assay [5], half-maximal inhibition (IC50) required 81 µM.

For the compound `CCOC(=O)CN(Cc1ccc(F)c(F)c1)c1ccc2c(c1)N(C)CC(C)(COc1ccc(C(=N)N)cc1)O2` (configuration not stated), the Activity in assay [1] came to 11%; in assay [2], 16%; in assay [3], 21%; in assay [4] it was 8%. In addition, the Ki at Prothrombin turned out to be 0.66 µM. In addition, the inhibition in the assay on Glycine max is greater than 0%. The compound also yielded an IC50 in assay [5] of 68 µM.

On to `CC(Cc1ccc(O)c(O)c1)C(C)Cc1ccc(O)c(O)c1` (configuration not stated), for which the Activity came out at 68% in [1], 81% in assay [2], 83% in assay [3] and 83% in [4].

Regarding `CCOC(=O)C(=O)N(Cc1ccc(F)cc1)c1ccc2c(c1)N(C)CC(C)(COc1ccc(C(=N)N)cc1)O2` (configuration not stated), the Activity in [1] came out at 10%; in assay [2], 12%; in assay [3], 21%; in assay [4], 10%. For the same compound, the inhibition in the assay on Glycine max is greater than 0%. This compound registered an IC50 in assay [5] of 51 µM.

Take `CCOC(=O)C(=O)N(Cc1cccc(F)c1)c1ccc2c(c1)N(C)CC(C)(COc1ccc(C(=N)N)cc1)O2` (configuration not stated): the Activity in [1] was determined as 11%; in assay [2], 14%; in assay [3], 24%; in [4], 12%. Moreover, the inhibition with Glycine max is greater than 0%. Besides, 90 µM corresponded to half-maximal inhibition in [5] (IC50).

With `CCOC(=O)CN(Cc1ccc(F)c(F)c1)c1ccc2c(c1)OC(C)(COc1ccc(C(=N)N)cc1)CN2C` (configuration not stated), the Activity was determined as 70% in assay [1], 81% in assay [2], 90% in [3] and 84% in [4]. Also, the affinity on Prothrombin corresponds to a Ki of 0.43 µM. The inhibition in the assay with Glycine max is greater than 0%. The compound further gave an IC50 in assay [5] of 70 µM.

In the case of `O=C(O)/C=C/c1ccc(O)c(O)c1` [CAFFEIC ACID], the IC50 in assay [6] was determined as 600 µM.

In the case of `CCOC(=O)CN(Cc1ccc(F)cc1)c1ccc2c(c1)N(C)CC(C)(COc1ccc(C(=N)N)cc1)O2` (configuration not stated), the Activity in [1] was 11%; in assay [2], 14%; in [3] it was 24%; in assay [4] it was 11%. Further, at Prothrombin, affinity was put at a Ki of 0.69 µM. The values for the IC50 in [6] and in assay [5] were 73 µM and 77 µM, respectively.

Take `CCOC(=O)CN(Cc1cc(F)cc(F)c1)c1ccc2c(c1)N(C)CC(C)(COc1ccc(C(=N)N)cc1)O2` (configuration not stated): the Activity in assay [1] turned out to be 8%; in assay [2], 10%; in [3], 18%; in assay [4], 8%. Moreover, affinity on Prothrombin was put at a Ki of 0.95 µM. In addition, the inhibition in the assay on Glycine max came to 41.7%. Further, the IC50 in [5] was 36 µM.

`CCOC(=O)C(=O)N(Cc1ccc(F)c(F)c1)c1ccc2c(c1)N(C)CC(C)(COc1ccc(C(=N)N)cc1)O2` (configuration not stated): the Activity in assay [1] was found to be 23%; in [2], 28%; in assay [3] it was 46%; in assay [4], 35%. The Ki on Prothrombin is 0.37 µM. The compound further gave an inhibition in the assay on Glycine max greater than 0%. Further, it took 61.5 µM to reach half-maximal inhibition in [5] (IC50).

The values are drawn from ChEMBL document CHEMBL1806438, “Thrombin inhibitors with lipid peroxidation and lipoxygenase inhibitory activities” (Bioorg Med Chem Lett, 2011).
